This is an account of results in US20260053778A1, “USE OF NOVEL PPAR ACTIVITY MODULATOR FOR PREVENTION, AMELIORATION OR TREATMENT OF DEGENERATIVE BRAIN DISEASES” (POSTECH RESEARCH AND BUSINESS DEVELOPMENT FOUNDATION, priority 2022, published 2026).

The test system of assay [1] is 5×FAD mice. Kind of assay: RT-PCR of adult microglia isolated from brains of treated mice. Conditions: microglia isolated from 5×FAD mice administered DTMB. The format is in vivo, mouse. Here is the method: To elucidate whether the gliosis reduction effect of DTMB administration confirmed in Example 6 was due to functional changes in microglia, brain tissues from mice administered DTMB were extracted, microglia were isolated, and the expression of genes related to inflammation and activation in microglia was analyzed to what extent they changed.
To isolate adult microglia from the brains of 5×FAD mice treated with DTMB or vehicle, a magnetic-activated cell sorting (MACS) system was used. Whole brain tissue was dissociated to the single-cell level using the gentleMACs dissociation kit (Miltenyi Biotech, Bergisch Gladbach, Germany) according to the manufacturer's instructions. To isolate the immune cell fraction, a 47% Percoll concentration gradient was applied to the single-cell mixture and centrifuged at 2,000 rpm for 10 min. Adult microglia were isolated by LS column after incubation with anti-CD11b MicroBeads (Miltenyi Biotech). RT-PCR was performed using the isolated adult microglia to analyze the expression of microglial activation and inflammation-related genes. The sample size was 3 mice per group.

A further assay has as its target T1, PPARβ/δ (Homo sapiens, UniProt Q03181).
T1 construct: expressed in transfected cells; host or cells: HEK293A
T1 sequence (Q03181 1-441): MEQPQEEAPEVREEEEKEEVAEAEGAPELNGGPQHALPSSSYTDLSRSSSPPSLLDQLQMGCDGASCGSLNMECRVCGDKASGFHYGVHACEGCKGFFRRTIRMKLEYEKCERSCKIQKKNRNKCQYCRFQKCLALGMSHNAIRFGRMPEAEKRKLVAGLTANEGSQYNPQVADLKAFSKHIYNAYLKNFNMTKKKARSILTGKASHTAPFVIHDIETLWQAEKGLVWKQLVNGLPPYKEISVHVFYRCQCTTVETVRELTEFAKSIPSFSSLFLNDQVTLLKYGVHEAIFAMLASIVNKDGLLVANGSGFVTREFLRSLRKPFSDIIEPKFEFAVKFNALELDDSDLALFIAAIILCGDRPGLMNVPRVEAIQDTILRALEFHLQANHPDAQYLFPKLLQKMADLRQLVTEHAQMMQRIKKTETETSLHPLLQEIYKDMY
Nature of the assay: GAL4-transactivation assay in HEK293A cells, PPARβ/δ. The format is cell-based. Conditions: GAL4 reporter, 24 h, compared with GW501516. As for the experimental part: A GAL4-transactivation assay experiment was performed to determine whether the drug was bound to the PPAR ligand binding site. HEK293A cells were transfected with GAL4-reporter plasmid and pGL4.74 (Promega, Madison, WI, USA) as an internal standard via electroporation using the Neon Transfection System (Invitrogen, Carlsbad, CA, USA). All vectors were kindly provided by Professor Kanno Yuichiro, Toho University, Japan. After overnight culture, cells were treated with DTMB and each positive control compound for 24 h. Cells were then harvested, resuspended in luciferase lysis buffer (Promega), and incubated on ice for 10 min. Cell debris was removed by centrifugation at 20,000×g, 4° C. for 10 min, and the supernatant was used for the luciferase assay. Luciferase activity was measured using the Dual Luciferase Reporter Assay System (Promega) according to the manufacturer's instructions. In the measurement experiment, firefly luciferase activity was normalized to Renilla luciferase activity. To investigate the concentration-dependent effect of DTMB drug, EC50 values were measured by treating various concentrations of DTMB.

Assay [2] has as its target T2, HIS-tagged recombinant PPAR β/δ protein (Homo sapiens, UniProt Q03181).
T2 sequence (Q03181 211-439 limits assumed): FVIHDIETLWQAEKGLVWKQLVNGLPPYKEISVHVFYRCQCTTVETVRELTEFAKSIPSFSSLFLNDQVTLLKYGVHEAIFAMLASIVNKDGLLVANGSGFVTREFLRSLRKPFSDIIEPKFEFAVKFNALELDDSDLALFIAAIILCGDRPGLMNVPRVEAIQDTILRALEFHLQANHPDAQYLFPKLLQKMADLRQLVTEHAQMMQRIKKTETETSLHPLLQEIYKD
Nature of the assay: CNBr-drug and protein binding experiment, PPARβ/δ. As to conditions: Western blotting after 24 h incubation. As for the experimental part:
Since the computer prediction program predicted that DTMB binds to PPAR transcription factors, CNBr-drug and protein binding experiments were conducted to confirm whether DTMB actually binds to PPAR. To determine the actual degree of drug-protein binding, the reaction of the protein of the PPAR-α, β/δ, γ ligand-binding portion with the DTMB drug-bound CNBr beads was confirmed through Western blotting.
Specifically, CNBr Sepharose 4B beads were prepared and activated according to the instructions. 100 mg of CNBr-activated Sepharose 4B beads were incubated with drugs or DMSO at 4° C. for 18 h. The drug-bound beads reacted with HIS-tagged recombinant PPAR α, β/δ, and γ proteins. After 24 h of incubation, Western blotting experiments were performed to confirm whether the recombinant proteins bound to the drug-bound beads.
(Immunoblotting shows a protein as a band on a membrane.)

In assay [3] the test system is 5×FAD mice. Nature of the assay: Aβ monomer Western blot and filter trap assay of brain lysates. The format is in vivo, mouse. Conditions: brain tissue lysates, 6e10 Western blot. Here is the method:
To investigate the soluble and insoluble Aβ components, two extraction steps were performed. Left hemisphere samples were homogenized at a concentration of 100 mg/mL in cold Tris-buffered saline (TBS consisting of 50 mM Tris-pH 7.5 and 150 mM NaCl) with a protease inhibitor cocktail (Thermo Fisher Scientific, Waltham, MO, USA). After centrifugation at 15,000 rpm for 1 hour at 4° C., the supernatant of the sample was used for western blotting. Insoluble proteins were extracted from the pellet by dissolving in 5 M guanidine buffer (5 M guanidine HCl and 150 mM NaCl-pH 7.5). Soluble and insoluble protein samples were stored at −80° C.
The insoluble fraction of the protein lysate from 5×FAD mice was diluted in 1% SDS-PBS and boiled at 95° C. for 5 min. The membrane was pre-equilibrated with 1×TBS. A dot blotter apparatus (Bio-Rad Laboratories, Hercules, CA, USA) was used for sample application, and the 6e10 antibody was used to detect the Aβ content in the brain lysate from 5×FAD mice treated with DTMB. The sample size was 3 mice per group.

SMILES strings stand for the structures.

With `COc1ccc(-c2cc(=O)oc3c(C)c(OC(=O)[C@H](Cc4c[nH]c5ccccc45)NC(=O)OC(C)(C)C)ccc23)cc1` [DTMB, [4-(4-Methoxyphenyl)-8-methyl-2-oxochromen-7-yl](2S)-3-(1H-indol-3-yl)-2-[(2-methylpropan-2-yl)oxycarbonylamino]propanoate], in the assay with 5×FAD mice [1], the “Gene expression of Cxcl10” value is on record as “decreased”, the “Gene expression of IL-1β” value was “decreased”, the “Gene expression of IL-6” value is recorded as “decreased” and the “Gene expression of Iba-1” value is recorded as “decreased”. In addition, in the assay on 5×FAD mice [1], the “Gene expression of Itgax2” value is reported as “decreased”, the “Gene expression of TNF-α” value is on record as “decreased”, the “Gene expression of Trem2” value is “decreased” and the “Gene expression of clec7a” value was “decreased”. In addition, the “PPARβ/δ activation versus positive control” value on PPARβ/δ was “activated at a slightly higher concentration than GW501516 and rosiglitazone, respectively”. In addition, in assay [2], the “Binding of PPARβ/δ ligand-binding protein to drug-bound CNBr beads” value is “binds to all subtypes of PPAR”. Further, the “Amyloid β monomers” value in the assay on 5×FAD mice [3] is reported as “not reduced”.
